This note sets out measurements from ChEMBL document CHEMBL5465560, “Selectivity Literature for EUbOPEN Chemogenomic Library” (2024).

The target in experiment [1] is Serine/threonine-protein kinase 25 (Homo sapiens) (UniProt O00506). The experiment in a line: Selectivity interaction (KinomeScan (DiscoverX)) EUB0000655a STK25. The settings on record: at 10 µM.
The target of experiment [2] is T1, Serine/threonine-protein kinase D2 (Homo sapiens) (UniProt Q9BZL6).
T1 sequence (whole entry): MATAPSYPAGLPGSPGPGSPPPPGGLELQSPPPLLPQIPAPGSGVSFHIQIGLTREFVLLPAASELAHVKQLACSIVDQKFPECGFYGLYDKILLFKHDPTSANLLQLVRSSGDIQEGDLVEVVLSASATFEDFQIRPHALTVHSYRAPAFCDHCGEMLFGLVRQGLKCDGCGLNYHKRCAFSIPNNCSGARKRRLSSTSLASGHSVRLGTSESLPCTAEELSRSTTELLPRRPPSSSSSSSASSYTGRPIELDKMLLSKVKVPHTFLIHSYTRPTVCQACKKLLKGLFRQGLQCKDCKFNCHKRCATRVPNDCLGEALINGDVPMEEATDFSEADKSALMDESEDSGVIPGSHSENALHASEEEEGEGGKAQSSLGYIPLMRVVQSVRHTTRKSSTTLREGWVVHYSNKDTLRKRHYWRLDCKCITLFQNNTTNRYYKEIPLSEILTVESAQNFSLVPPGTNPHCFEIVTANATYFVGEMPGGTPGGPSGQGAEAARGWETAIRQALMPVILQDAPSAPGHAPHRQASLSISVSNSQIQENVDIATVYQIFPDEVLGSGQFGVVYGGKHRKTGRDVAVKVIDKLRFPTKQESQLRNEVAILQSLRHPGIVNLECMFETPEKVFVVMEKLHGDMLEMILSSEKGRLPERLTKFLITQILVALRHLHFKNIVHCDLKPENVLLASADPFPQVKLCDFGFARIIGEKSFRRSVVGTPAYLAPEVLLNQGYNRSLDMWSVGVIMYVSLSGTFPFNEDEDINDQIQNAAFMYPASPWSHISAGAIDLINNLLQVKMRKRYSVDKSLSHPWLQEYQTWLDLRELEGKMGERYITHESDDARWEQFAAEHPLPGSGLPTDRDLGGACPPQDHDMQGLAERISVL
The experiment can be described thus: Selectivity interaction (ActivX KiNativ screen (kinase selectivity in THP-1 cell lysates)) EUB0000639a PRKD2. In kind it is subcellular. The settings on record: lysate.

The target of experiment [3] is Phosphatidylinositol 4-kinase beta (Homo sapiens, UniProt Q9UBF8). The experiment can be described thus: Selectivity interaction (ActivX KiNativ screen (kinase selectivity in THP-1 cell lysates)) EUB0000639a PI4KB. It is filed as subcellular. The settings on record: lysate, at 0.2 µM.
Experiment [4] addresses Glycogen synthase kinase-3 beta (Homo sapiens, UniProt P49841). The experiment can be described thus: Selectivity interaction (ProQinase) EUB0000171b GSK3B.
The target of experiment [5] is T2, Mitogen-activated protein kinase kinase kinase 19 (Homo sapiens) (UniProt Q56UN5).
T2 sequence (whole entry): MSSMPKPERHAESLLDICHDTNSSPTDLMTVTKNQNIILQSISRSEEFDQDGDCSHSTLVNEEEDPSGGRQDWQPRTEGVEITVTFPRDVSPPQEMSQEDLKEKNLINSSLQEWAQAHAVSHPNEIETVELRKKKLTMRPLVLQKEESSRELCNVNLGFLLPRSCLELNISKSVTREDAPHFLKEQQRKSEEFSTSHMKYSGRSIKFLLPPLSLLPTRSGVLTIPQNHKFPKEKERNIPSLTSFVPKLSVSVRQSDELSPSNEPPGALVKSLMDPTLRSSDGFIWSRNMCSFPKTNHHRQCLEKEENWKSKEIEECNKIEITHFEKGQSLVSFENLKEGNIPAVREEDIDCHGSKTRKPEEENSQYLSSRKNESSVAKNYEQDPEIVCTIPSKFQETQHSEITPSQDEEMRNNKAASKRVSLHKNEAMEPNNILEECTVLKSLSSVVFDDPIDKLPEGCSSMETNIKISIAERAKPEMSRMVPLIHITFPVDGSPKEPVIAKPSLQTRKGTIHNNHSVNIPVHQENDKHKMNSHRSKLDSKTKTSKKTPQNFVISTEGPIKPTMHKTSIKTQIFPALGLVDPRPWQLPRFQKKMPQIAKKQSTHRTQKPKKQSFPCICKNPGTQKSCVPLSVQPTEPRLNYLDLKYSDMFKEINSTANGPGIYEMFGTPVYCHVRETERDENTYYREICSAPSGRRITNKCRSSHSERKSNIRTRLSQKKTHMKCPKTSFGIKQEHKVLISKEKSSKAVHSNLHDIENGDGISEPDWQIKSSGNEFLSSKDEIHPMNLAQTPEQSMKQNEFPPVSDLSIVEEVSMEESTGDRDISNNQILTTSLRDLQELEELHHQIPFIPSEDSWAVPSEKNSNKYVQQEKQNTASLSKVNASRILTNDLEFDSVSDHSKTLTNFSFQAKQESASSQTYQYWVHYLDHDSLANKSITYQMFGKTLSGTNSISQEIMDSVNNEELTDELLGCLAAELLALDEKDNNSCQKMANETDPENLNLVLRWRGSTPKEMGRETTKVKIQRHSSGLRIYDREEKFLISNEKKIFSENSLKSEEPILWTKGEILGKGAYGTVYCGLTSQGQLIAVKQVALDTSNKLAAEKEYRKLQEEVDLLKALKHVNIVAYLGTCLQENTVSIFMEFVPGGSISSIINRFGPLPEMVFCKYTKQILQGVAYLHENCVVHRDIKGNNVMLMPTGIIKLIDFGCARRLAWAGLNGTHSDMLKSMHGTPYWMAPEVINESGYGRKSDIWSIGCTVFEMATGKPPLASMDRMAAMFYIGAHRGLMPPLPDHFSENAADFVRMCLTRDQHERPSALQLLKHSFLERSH
The experiment can be described thus: Selectivity interaction (KinomeScan (DiscoverX)) EUB0001868a MAP3K19. The conditions noted are these: at 1 µM.

For experiment [6], the target named is T3, Serine/threonine-protein kinase Nek2 (Homo sapiens) (UniProt P51955).
T3 sequence (whole entry): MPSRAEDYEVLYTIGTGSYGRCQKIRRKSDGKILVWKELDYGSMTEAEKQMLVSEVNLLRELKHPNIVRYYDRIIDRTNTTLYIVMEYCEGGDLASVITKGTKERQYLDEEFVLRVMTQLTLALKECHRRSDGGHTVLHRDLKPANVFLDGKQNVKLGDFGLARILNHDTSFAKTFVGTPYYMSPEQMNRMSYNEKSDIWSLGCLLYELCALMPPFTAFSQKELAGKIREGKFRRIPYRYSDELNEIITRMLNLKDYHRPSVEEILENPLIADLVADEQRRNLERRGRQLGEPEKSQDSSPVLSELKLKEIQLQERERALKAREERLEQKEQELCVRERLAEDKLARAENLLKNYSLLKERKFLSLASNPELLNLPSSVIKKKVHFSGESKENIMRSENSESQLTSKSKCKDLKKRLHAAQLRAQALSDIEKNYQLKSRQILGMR
The experiment in a line: Selectivity interaction (KinomeScan (DiscoverX)) EUB0000045b NEK2.

Chain of Glycogen synthase kinase-3 beta (P49841 whole entry, looked up): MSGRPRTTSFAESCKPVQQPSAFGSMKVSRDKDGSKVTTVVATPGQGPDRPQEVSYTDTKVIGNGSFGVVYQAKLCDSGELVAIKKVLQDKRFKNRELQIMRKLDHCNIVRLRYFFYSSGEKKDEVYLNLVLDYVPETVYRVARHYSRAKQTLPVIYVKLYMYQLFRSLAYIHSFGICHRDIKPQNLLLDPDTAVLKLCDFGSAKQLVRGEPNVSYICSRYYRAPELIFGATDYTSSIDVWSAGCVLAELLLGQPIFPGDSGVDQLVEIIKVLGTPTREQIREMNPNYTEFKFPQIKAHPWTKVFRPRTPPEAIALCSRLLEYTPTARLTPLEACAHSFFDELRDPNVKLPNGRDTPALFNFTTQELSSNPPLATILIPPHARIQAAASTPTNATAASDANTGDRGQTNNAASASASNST
Chain of Phosphatidylinositol 4-kinase beta (Q9UBF8 2-816 limits assumed): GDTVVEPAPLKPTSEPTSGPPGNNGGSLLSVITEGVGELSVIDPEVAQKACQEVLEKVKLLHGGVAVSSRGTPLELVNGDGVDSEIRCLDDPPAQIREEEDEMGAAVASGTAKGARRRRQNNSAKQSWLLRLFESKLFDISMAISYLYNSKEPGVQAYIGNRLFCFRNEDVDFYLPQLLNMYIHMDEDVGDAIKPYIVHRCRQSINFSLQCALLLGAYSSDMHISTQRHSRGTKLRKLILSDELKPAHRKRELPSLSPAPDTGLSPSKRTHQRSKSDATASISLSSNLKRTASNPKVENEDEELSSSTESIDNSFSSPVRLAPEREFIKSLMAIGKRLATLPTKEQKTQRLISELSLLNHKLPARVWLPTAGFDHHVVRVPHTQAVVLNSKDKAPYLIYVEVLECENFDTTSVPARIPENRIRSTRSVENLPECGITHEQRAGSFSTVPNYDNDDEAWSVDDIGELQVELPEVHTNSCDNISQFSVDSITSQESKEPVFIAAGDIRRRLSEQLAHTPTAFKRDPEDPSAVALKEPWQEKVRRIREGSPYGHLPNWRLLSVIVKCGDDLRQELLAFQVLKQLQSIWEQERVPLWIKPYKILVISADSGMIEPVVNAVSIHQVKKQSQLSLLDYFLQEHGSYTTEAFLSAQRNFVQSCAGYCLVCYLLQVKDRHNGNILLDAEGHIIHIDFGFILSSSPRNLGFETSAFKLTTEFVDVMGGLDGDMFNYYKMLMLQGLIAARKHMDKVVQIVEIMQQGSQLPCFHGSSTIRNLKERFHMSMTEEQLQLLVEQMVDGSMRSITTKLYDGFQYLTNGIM
Chain of Serine/threonine-protein kinase 25 (Homo sapiens) (O00506 whole entry, looked up): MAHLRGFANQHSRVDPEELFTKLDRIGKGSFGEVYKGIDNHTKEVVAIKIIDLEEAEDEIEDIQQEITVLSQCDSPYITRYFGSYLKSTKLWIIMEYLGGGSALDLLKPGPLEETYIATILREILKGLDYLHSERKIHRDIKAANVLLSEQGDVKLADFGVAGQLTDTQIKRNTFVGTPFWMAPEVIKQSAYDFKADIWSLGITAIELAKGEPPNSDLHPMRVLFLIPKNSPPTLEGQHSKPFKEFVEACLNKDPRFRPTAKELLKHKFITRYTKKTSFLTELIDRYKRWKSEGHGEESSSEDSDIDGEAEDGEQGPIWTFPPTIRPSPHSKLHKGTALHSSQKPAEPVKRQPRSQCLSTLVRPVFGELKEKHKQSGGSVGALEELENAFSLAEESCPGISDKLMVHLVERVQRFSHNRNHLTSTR

With `CN(C)CCOc1ccc(-c2nc(-c3ccncc3)c(-c3ccc4c(c3)CC/C4=N\O)[nH]2)cc1`, the % of control in experiment [1] was 100%.
On to `CC[C@@H]1[C@H](F)C(=O)N[C@@H]1COc1nccc2cc(C(N)=O)c(OC)cc12` [ZIMLOVISERTIB], for which the % of inhibition was 1.1% in experiment [2] (at 0.01 µM); 12.3% in experiment [2] (at 0.04 µM); 6.8% in experiment [2] (at 0.2 µM); 11.9% in experiment [2] (at 1 µM); 5.6% in experiment [2] (at 5 µM); -16.4% in experiment [3].
With `C=CC(=O)Nc1cccc(C(=O)Nc2ccc(Nc3cc(-c4[nH]c(SC)nc4C)ccn3)cc2)c1`, the % of control was 91% in experiment [4] (at 1 µM) and 85% in experiment [4] (at 5 µM).
Consider `Cc1cc(-c2ccnc(Nc3cnn(C)c3)n2)ccc1CNC(=O)N1CC(OC(C)C)C1`, for which, in experiment [5], the % of control worked out at 9%.
As to `C=CC(=O)Nc1cc(-n2c(=O)ccc3cnc4ccc(-c5ccc(NS(C)(=O)=O)cc5)cc4c32)ccc1C`, the % of control in experiment [6] (at 1 µM) was 79%; in experiment [6] (at 10 µM), 85%.
